≈ marks a conversion by molar mass, not a printed value.
What was measured:
[1] = system: Mus musculus; assay: Antiinflammatory activity in mouse assessed as reduction PMA-induced ear edema at 50 ug/ear administered relative to control; format: functional; design: scale not given: the % may be the effect or the level left; settings: at 50 µg/ear
[2] = Inhibition of nuclear division of fertilized sea urchin egg; settings: echinoidea
[3] = Inhibition of cell division of fertilized sea urchin egg; settings: echinoidea
[4] = Inhibition of tubulin polymerization
[5] = system: Mus musculus; assay: Antiinflammatory activity in ip dosed mouse assessed as inhibition of writhing; format: functional
[6] = system: Mus musculus; assay: Antiinflammatory activity in ip dosed mouse assessed as reduction PMA-induced ear edema; format: functional
[7] = system: Mus musculus; assay: Antiinflammatory activity in mouse assessed as reduction PMA-induced ear edema; format: functional

SMILES | Activity [1] | ED50 [5] | ED50 [6] | further results
CC(=O)O[C@H]1[C@H](O)[C@H](Oc2c(O)c(C)cc3c2[C@@H](C)CC[C@@H]3[C@@H](C)CCC=C(C)C)OC[C@H]1O | 75% | – | – | –
CC(=O)O[C@@H]1CO[C@@H](Oc2c(O)c(C)cc3c2[C@@H](C)CC[C@@H]3[C@@H](C)CCC=C(C)C)[C@@H](O)[C@@H]1O | 75% | – | – | –
C=C(C)[C@H]1C2=CC(C(=O)OC)=C(C[C@H](C(C)C)[C@H]3O[C@H]3C3=C[C@H]1OC3=O)O2 [PSEUDOPTEROLIDE] | 83% | – | – | Activity [2]: Non-toxic; Activity [3]: Non-toxic; ED50 [4]: 8 µg/mL (≈ 21.5 µM)
CC(C)=C[C@H]1C[C@H](C)[C@H]2CC[C@H](C)c3c(O[C@@H]4OC[C@@H](O)[C@H](O)[C@H]4O)c(O)c(C)c1c32 [PSEUDOPTEROSIN A] | 75% | 4 mg/kg | 10 mg/kg | ED50 [7]: 8.3 µg
CC(=O)O[C@H]1[C@H](Oc2c(O)c(C)c3c4c2[C@@H](C)CC[C@@H]4[C@@H](C)C[C@@H]3C=C(C)C)OC[C@@H](O)[C@@H]1O [PSEUDOPTEROSIN B] | 75% | 4 mg/kg | 10 mg/kg | –
CC(=O)O[C@@H]1[C@@H](O)[C@H](Oc2c(O)c(C)c3c4c2[C@@H](C)CC[C@@H]4[C@@H](C)C[C@@H]3C=C(C)C)OC[C@H]1O [PSEUDOPTEROSIN C] | 75% | 4 mg/kg | 10 mg/kg | –
CC(=O)O[C@@H]1CO[C@@H](Oc2c(O)c(C)c3c4c2[C@@H](C)CC[C@@H]4[C@@H](C)C[C@@H]3C=C(C)C)[C@H](O)[C@H]1O [PSEUDOPTEROSIN D] | 75% | 4 mg/kg | 10 mg/kg | –
CC(C)=CCC[C@H](C)[C@H]1CC[C@H](C)c2c1cc(C)c(O)c2O[C@@H]1OC[C@@H](O)[C@@H](O)[C@@H]1O [SECO-PSEUDOPTEROSIN A] | 75% | – | – | –
CC(=O)O[C@@H]1[C@H](Oc2c(O)c(C)cc3c2[C@@H](C)CC[C@@H]3[C@@H](C)CCC=C(C)C)OC[C@@H](O)[C@H]1O [SECO-PSEUDOPTEROSIN B] | 75% | – | – | –
